Experimental data taken from patent publication US6355682B1, “Treatment of acute renal failure by administration of N-acetylcysteine” (priority 2001, dated 2002).

System: patients affected by acute renal failures
Assay: Clinical case reports: N-acetycysteine given to patients with acute renal failure
Assay type: in vivo, human

Compound: CC(=O)N[C@@H](CS)C(=O)O [N-acetycysteine, N-acetylcysteine]
- renal function (Case No. 1: 10 mg/kg twice daily, over the next several days): returned to normal
- BUN and Creatinin (Case No. 1: acute renal failure after cardiogenic shock, 600 mg in a 20% solution every twelve hours, the next day): the rise of BUN and Creatinin stopped
- need for dialysis (Case No. 1: after N-acetycysteine treatment): Dialysis was no longer required
- renal function (Case No. 2: 20 mg/kg every twelve hours, over the next seventy-two hours): returned to normal
- need for dialysis (Case No. 2: after N-acetycysteine treatment): Dialysis was no longer required
- BUN and Creatinin (Case No. 2: hypovolemic shock from acute pancreatitis, 20% solution, 20 mg/kg every twelve hours, values had risen to five times normal): The rise in their BUN and Creatinin stopped
- urine output (Case No. 3: 20 mg/kg every twelve hours via nasogastric tube, before treatment less than 100 cc per day): increased to the normal level
- BUN and Creatinin (Case No. 3: multi-organ failure after cardiac arrest, 20 mg/kg every twelve hours via nasogastric tube, over the next several days): progressively declined
- Creatinin clearance (Case No. 4: 10 mg/kg every twelve hours, two weeks after onset of renal toxicity, 11 ml/minute before treatment, normal for age above 65 ml/min): 22 mL/min
- urine output (Case No. 4: 10 mg/kg every twelve hours, within several days): returned to normal
- Bun/Creatinin (Case No. 4: diabetic patient, acute renal failure under IV Vancomycin and Imipenim, 10 mg/kg every twelve hours, values had risen to five times normal): progressively declined
- need for dialysis (Case No. 4: two weeks after onset of renal toxicity): dialysis was no longer required
- potassium level (Case No. 5: 20 mg/kg every twelve hours, within 24 hours, serum potassium 6.8 before admission): normalized
- urine volume (Case No. 5: deterioration of chronic renal failure after Ciprofloxacin, 20 mg/kg every twelve hours, within 24 hours): substantially increased
- need for hemodialysis (Case No. 5: remained on 600 mg twice daily): no longer required any hemodialysis
